# Experimental data taken from patent EP0198605A1, “Prophylaxis of pharmacotherapy of liver disorders” (TEIJIN LIMITED, priority 1985, dated 1986).
# Read-outs that look alike come from different tables or passages of the source.
# Legend:
# [1] = test system: hepatic disorders induced by D-galactosamine; test: Hepatic disorders induced by D-galactosamine in rats (serum GOT, GPT, bilirubin, complement value); format: in vivo, Wister male rats; conditions: DSCG i.p. 1 mg/kg, GalN 250 mg/kg i.p., serum two days after GalN
# Experimental: In the evaluation tests, 8 to 9 weeks old Wister male rats were used. Five rats were used in each test group. The rats were given standard chow and water ad libitum.
# D-Galactosamine hydrochloride (GalN) was dissolved in sterilized physiological saline and the pH thereof was adjusted to 7. The resultant solution was peritoneally administered to each rat at a dosage of 250 mg/kg. To one control group, only GalN was injected, and physiological saline was administered to the other control group instead of pionin. Furthermore, only physiological saline but no GaIN was injected to the physiological saline administration group.
# The pionin was administered as follows. It is diluted 10, 100, and 1000 times with dextrose and these diluted powders were dissolved in saline. All drugs were intravenously or orally administered at doses of 0.1, 0.5, 1, and 10 pg/kg. The administration was carried out from five days before to the day after the GaIN injection.
# The rats were killed two days after the injection of GalN and blood was collected. The blood samples were allowed to stand at room temprature for one hour and serum was then centrifugally separated at 2500 rpm for 10 minutes.
# The determination of GOT and GPT in the serum samples was carried out according to a modification of the Reitman-Framkel method [see Amir. J. Clin. Pothil. 28, 56 (1957) and J. Clin. Invest. 34, 131 (1955)], the determination of bilirubin was carried out according to a modification of Jendrassik-Grof method [see Clinical Chemistry, 19, 984-993 (1973)], and the determination of the complement value was carried out according to the Mayer method (see Experimental Immunochemistry, 2, 133-240, 1961).
# The results are shown in Table 2 (i.e., intravenous administration of pionin) and Table 3 (i.e., oral administration of pionin). Disodium cromoglycate (i.e., DSCG) was used as a control.
# [2] = test system: hepatic disorders induced by D-galactosamine; test: as above; format: in vivo, Wister male rats; conditions: for Bilirubin / Complement value (%) / Enzyme activity GOT (K.U.) / Enzyme activity GPT (K.U.): GalN 250 mg/kg i.p., serum two days after GalN
# rat liver cells = test: Hepatic necrocytosis induced by carbon tetrachloride (in vitro), trypan blue exclusion test; format: cell-based
# Experimental: Liver cells were prepared according to a method disclosed in Nakamura et al "Proteins, Nucleic Acids, and Enzymes" Vol. 24, pages 55-76 (1981). That is, the rat liver cells, which were previously peritoneally treated with phenobarbital at 80 mg/kg/day for 3 days, were collected by centrifugal separation after being subjected to 0.05% collagenase perfusion.
# The liver cells thus obtained were suspended in a William's E culture medium containing 10% fetal calf serum, dexamethasone (10^-6 M) and insulin (0.02 unit/ml). A 3 ml amount of the cell dispersion having a cell content of 5 x 10^S cells/ml was placed in a 25 mm Falcon dish and was then incubated at a temperature of 37°C under an atmosphere of 5% C02 and 95% air for 3 hours. After 3 hours incubation, the number of surviving liver cells in the incubated dish was measured according to a trypan blue exclusion test. The average value thereof was used as a control value for the survival percentage of the liver cells in the pre-incubation.
# Then, a culture medium containing 2-[2-(3-heptyl-4-methyl-4-thiazolin-2-ylidene) methyll-3-heptyl thiazolinium iodide (i.e., pionin) dissolved in ethanol was substituted after removing non-adhesive cells and was then incubated for a further one hour. The concentrations of pionin in the culture medium were 0.94 x 10^-6, 1.8x10^-7, 1x10^-8, 1x10^-9, and I x 10^-10 mole and, as a control or comparative test, the culture medium itself, the culture medium containing 0.5% of ethanol, and the culture medium containing 0.25 µm/ml of carbon tetrachloride were used.
# Then, 0.25 pm/ml of carbon tetrachloride was added to each culture dish and the incubation was carried out for a further 3 hours under the same conditions mentioned above. No further carbon tetrachloride was added to the comparative culture containing carbon tetrachloride. After 3 hours incubation, the number of survival liver cells was measured according to a trypan blue exclusion test. The percentage ratio of the mean survival number to the survival number of the above-mentioned pre-incubation was then calculated.
# The results are shown in Table 1, in which the mean survival cell percentage (%) and standard deviation thereof in the culture dish containing 4 to 29 liver cells (i.e., N). Statistical significance was evaluated by Student's t-test.
# [3] = test system: hepatic necrocytosis induced by carbon tetrachloride; test: Hepatic necrocytosis induced by carbon tetrachloride (in vivo), serum GOT and GPT; design: species or system SD male rats; conditions: for Enzyme Activity GOT (U/L) / Enzyme Activity GPT (U/L): 6 administrations, CCl4 0.5 ml/kg i.p.; for inhibiting liver necrocytosis induced by CCl4 (result in words): in vivo, summary of Tables 4 to 6
# Experimental: In the evaluation tests, 6 weeks old SD male rats were used. […] The rats were freely fed or supplied with a solid feed and drinking water.
# Carbon tetrachloride (CC14) was diluted with an olive oil and was peritoneally injected in each rat at a dosage of 0.5 ml/kg. To the control group, only CC14 diluted with the olive oil and a 5% gum arabic solution containing no active ingredient were administered. Furthermore, only the olive oil but no CC14 was administered to the olive oil injection group in the Tables.
# The methincyanine compounds listed in Tables 4 to 6 were administered as follows. Methincyanine compounds were diluted 100 times with dextrose dissolved in 5% gum arabic solutions. The administration schedules were such that the methiocyanine compounds were administered 6 times in total from 5 days before the CC14 injection to the day of the injection.
# Blood was sampled from the orbital veniplex of the rat and was allowed to stand at room temperature for one hour. The blood sample was then centrifugally separated at 2800 rpm for 10 minutes. The resultant supernatant was used as a serum sample.
# The determination of GOT and GPT in the serum sample was carried out by using a determination kit (available from Boeklinger-Yamanouchi Co.) and the results were recorded in an automatic analyzer (available from FLEXIGEM Co.).
# rats = conditions: oral, cited from earlier work
# [4] = Table 2 experiment, DSCG i.p. 1 mg/kg
# [5] = Table 3 experiment, DSCG i.p. 1 mg/kg
# [6] = Table 2, intravenous, 0.1 µg/kg
# [7] = Table 2, intravenous, 0.5 µg/kg
smiles,measurement,setting,value
"O=C(O)c1cc(=O)c2c(OCC(O)COc3cccc4oc(C(=O)O)cc(=O)c34)cccc2o1 [DSCG, Disodium cromoglycate, reference compound]",Enzyme activity GPT (K.U.),[1]; Table 2 experiment,220 ± 20 K.U.
same,Bilirubin,[1]; Table 3 experiment,0.21 mg/dL
same,Enzyme activity GOT (K.U.),[1]; Table 3 experiment,480 ± 50 K.U.
same,Bilirubin,[2]; [4],0.29 mg/dL
same,Complement value (%),[2]; [4],88.4%
same,Enzyme activity GOT (K.U.),[2]; [4],400 ± 42 K.U.
same,Complement value (%),[2]; [5],80.4%
same,Enzyme activity GPT (K.U.),[2]; [5],230 ± 33 K.U.
"CCCCCCCN1C(C)=CSC1=Cc1scc(C)[n+]1CCCCCCC [Pionin, 2-[2-(3-heptyl-4-methyl-4-thiazolin-2-ylidene)methyl]-3-heptyl-4-methyl thiazolinium iodide]",viability at 0.94 µM,"rat liver cells; Rattus norvegicus, CCl4 + Pionin 0.94 x 10^-6 M, 3 hours after CCl4, mean ± standard deviation, read-out: Survival ratio (%)",43.6 ± 11.6%
same,viability at 0.01 µM,"rat liver cells; Rattus norvegicus, CCl4 + Pionin 1 x 10^-8 M, 3 hours after CCl4, mean ± standard deviation, read-out: Survival ratio (%)",63.5 ± 19%
same,viability at 0.001 µM,"rat liver cells; Rattus norvegicus, CCl4 + Pionin 1 x 10^-9 M, 3 hours after CCl4, mean ± standard deviation, read-out: Survival ratio (%)",63.4 ± 6.8%
same,viability at 0.0001 µM,"rat liver cells; Rattus norvegicus, CCl4 + Pionin 1 x 10^-10 M, 3 hours after CCl4, mean ± standard deviation, read-out: Survival ratio (%)",63.2 ± 23%
same,viability at 0.18 µM,"rat liver cells; Rattus norvegicus, CCl4 + Pionin 1.8 x 10^-7 M, 3 hours after CCl4, mean ± standard deviation, read-out: Survival ratio (%)",47.1 ± 8.1%
same,inhibiting liver necrocytosis (result in words),"rat liver cells; in vitro, summary of Table 1",has an activity capable of inhibiting liver necrocytosis
same,Enzyme Activity GOT (U/L),"[3]; Table 4, oral, 1 µg/kg",678.3 ± 76.5 U/L
same,Enzyme Activity GPT (U/L),"[3]; Table 4, oral, 1 µg/kg",209.0 ± 31.2 U/L
same,Enzyme Activity GOT (U/L),"[3]; Table 4, oral, 3 µg/kg",754.5 ± 108.8 U/L
same,Enzyme Activity GPT (U/L),"[3]; Table 4, oral, 3 µg/kg",269.7 ± 50.3 U/L
same,Enzyme Activity GOT (U/L),"[3]; Table 4, oral, 10 µg/kg",559.2 ± 56.6 U/L
same,Enzyme Activity GPT (U/L),"[3]; Table 4, oral, 10 µg/kg",165.8 ± 25.9 U/L
same,Enzyme Activity GOT (U/L),"[3]; Table 4, oral, 30 µg/kg",946.8 ± 110.6 U/L
same,Enzyme Activity GPT (U/L),"[3]; Table 4, oral, 30 µg/kg",311.4 ± 49.4 U/L
same,Enzyme Activity GOT (U/L),"[3]; Table 6, oral, 10 µg/kg",807 ± 172 U/L
same,Enzyme Activity GPT (U/L),"[3]; Table 6, oral, 10 µg/kg",251 ± 83 U/L
same,inhibiting liver necrocytosis induced by CCl4 (result in words),[3],has an activity capable of inhibiting liver necrocytosis induced by CCl4
same,LD50,rats; female rats,503 mg/kg
same,LD50,rats; male rats,460 mg/kg
same,Bilirubin,[2]; [6],0.51 mg/dL
same,Complement value (%),[2]; [6],88.2%
same,Enzyme activity GOT (K.U.),[2]; [6],550 ± 160 K.U.
same,Enzyme activity GPT (K.U.),[2]; [6],510 ± 62 K.U.
same,Bilirubin,[2]; [7],0.35 mg/dL
same,Complement value (%),[2]; [7],96.6%
same,Enzyme activity GOT (K.U.),[2]; [7],420 ± 30 K.U.
same,Enzyme activity GPT (K.U.),[2]; [7],300 ± 55 K.U.
same,Bilirubin,"[2]; Table 2, intravenous, 1 µg/kg",0.44 mg/dL
same,Complement value (%),"[2]; Table 2, intravenous, 1 µg/kg",91.2%
same,Enzyme activity GOT (K.U.),"[2]; Table 2, intravenous, 1 µg/kg",780 ± 29 K.U.
same,Enzyme activity GPT (K.U.),"[2]; Table 2, intravenous, 1 µg/kg",600 ± 40 K.U.
same,Bilirubin,"[2]; Table 2, intravenous, 10 µg/kg",0.77 mg/dL
same,Complement value (%),"[2]; Table 2, intravenous, 10 µg/kg",87.6%
same,Enzyme activity GOT (K.U.),"[2]; Table 2, intravenous, 10 µg/kg",1036 ± 50 K.U.
same,Enzyme activity GPT (K.U.),"[2]; Table 2, intravenous, 10 µg/kg",980 ± 39 K.U.
same,Bilirubin,"[2]; Table 3, oral, 0.1 µg/kg",0.77 mg/dL
same,Complement value (%),"[2]; Table 3, oral, 0.1 µg/kg",86.1%
same,Enzyme activity GOT (K.U.),"[2]; Table 3, oral, 0.1 µg/kg",1200 ± 198 K.U.
same,Enzyme activity GPT (K.U.),"[2]; Table 3, oral, 0.1 µg/kg",1003 ± 87 K.U.
same,Bilirubin,"[2]; Table 3, oral, 0.5 µg/kg",0.36 mg/dL
same,Complement value (%),"[2]; Table 3, oral, 0.5 µg/kg",91.1%
same,Enzyme activity GOT (K.U.),"[2]; Table 3, oral, 0.5 µg/kg",622 ± 100 K.U.
same,Enzyme activity GPT (K.U.),"[2]; Table 3, oral, 0.5 µg/kg",550 ± 51 K.U.
same,Bilirubin,"[2]; Table 3, oral, 1 µg/kg",0.55 mg/dL
same,Complement value (%),"[2]; Table 3, oral, 1 µg/kg",92.3%
same,Enzyme activity GOT (K.U.),"[2]; Table 3, oral, 1 µg/kg",710 ± 30 K.U.
same,Enzyme activity GPT (K.U.),"[2]; Table 3, oral, 1 µg/kg",440 ± 13 K.U.
same,Bilirubin,"[2]; Table 3, oral, 10 µg/kg",0.88 mg/dL
same,Complement value (%),"[2]; Table 3, oral, 10 µg/kg",88.8%
same,Enzyme activity GOT (K.U.),"[2]; Table 3, oral, 10 µg/kg",1350 ± 136 K.U.
same,Enzyme activity GPT (K.U.),"[2]; Table 3, oral, 10 µg/kg",1200 ± 188 K.U.
same,inhibition of liver disorders induced by D-galactosamine (result in words),[2]; summary of Tables 2 and 3,can inhibit liver disorders induced by D-galactosamine
"CCCCCCCCCCCCN1C(C)=CSC1=Cc1scc(C)[n+]1CC [Compound of Example 3, 2-[2-(3-dodecyl-4-methyl-4-thiazolin-2-ylidene)methyl]-3-ethyl-4-methyl thiazolinium iodide]",Enzyme Activity GOT (U/L),"[3]; Table 5, oral, 10 µg/kg",435 ± 67 U/L
same,Enzyme Activity GPT (U/L),"[3]; Table 5, oral, 10 µg/kg",107 ± 18 U/L
"CCCCCCC[n+]1c(C=C2SC=C(C)N2CCCC)sc(C)c1C [Compound of Example 5, 2-[2-(3-butyl-4-methyl-4-thiazolin-2-ylidene)methyl]-3-heptyl-4,5-dimethyl thiazolinium iodide]",Enzyme Activity GOT (U/L),"[3]; Table 5, oral, 10 µg/kg",393 ± 59 U/L
same,Enzyme Activity GPT (U/L),"[3]; Table 5, oral, 10 µg/kg",135 ± 29 U/L
"CCCCCCC[n+]1cc(C)sc1C=C1SC=C(C)N1CCCC [Compound of Example 4, 2-[2-(3-butyl-4-methyl-4-thiazolin-2-ylidene)methyl]-3-heptyl-5-methyl thiazolinium iodide]",Enzyme Activity GOT (U/L),"[3]; Table 5, oral, 10 µg/kg",386 ± 50 U/L
same,Enzyme Activity GPT (U/L),"[3]; Table 5, oral, 10 µg/kg",118 ± 21 U/L
"CCCCCCCCCCCCN1C(C)=CSC1=Cc1scc(C)[n+]1CCCC [Compound of Example 1, 2-[2-(3-dodecyl-4-methyl-4-thiazolin-2-ylidene)methyl]-3-butyl-4-methyl thiazolinium iodide]",Enzyme Activity GOT (U/L),"[3]; Table 6, oral, 10 µg/kg",627 ± 92 U/L
same,Enzyme Activity GPT (U/L),"[3]; Table 6, oral, 10 µg/kg",198 ± 37 U/L
same,inhibiting liver necrocytosis induced by CCl4 (result in words),[3],strong inhibiting activities against liver necrocytosis induced by CC14 when compared with pionin
"CCCCCCCCCCN1C(C)=CSC1=Cc1scc(C)[n+]1CCCC [Compound of Example 8, 2-[2-(3-decyl-4-methyl-4-thiazolin-2-ylidene)methyl]-3-butyl-4-methylthiazolinium iodide]",Enzyme Activity GOT (U/L),"[3]; Table 5, oral, 10 µg/kg",310 ± 68 U/L
same,Enzyme Activity GPT (U/L),"[3]; Table 5, oral, 10 µg/kg",99 ± 27 U/L
